# Laboratory results published in PubChem BioAssay AID1850 (Southern Research Specialized Biocontainment Screening …, 2009).
# System: Salmonella Typhi PhoP-promoter GFP reporter, fluorescence, 4 h
# Assay: Inhibition of PhoP regulon, Salmonella typhi GFP reporter cells, confirmation, 4 h (AID 1850)
row,Compound,IC50 [µM]
1,O=C(O)c1cn(-c2ccc(F)cc2)c2cc(Cl)c(F)cc2c1=O,83.7
2,COc1cc(Br)cc(/C=N/c2ncn[nH]2)c1O,98.4
3,Cc1ccc(Nc2cc(C)c3c(O)cccc3n2)cc1C,6.64
4,C#CCOCCOCCOCCNc1nc(N2CCN(C(=O)CCCCCCCCCCNC(=O)[C@H](CCCCN)n3cc(C)nn3)CC2)nc(N2CCN(C(=O)CCCCCCCCCCNC(=O)[C@@H]([C@H](C)CC)n3cc(CCCCCN)nn3)CC2)n1,33
5,O=C(N/N=C/c1ccc([N+](=O)[O-])s1)c1cccnc1,24
6,O=C(c1ccc([N+](=O)[O-])o1)N1CCOCC1,76.8
7,COC(=O)N/N=C/c1c[n+]([O-])c2ccccc2[n+]1[O-],49.2
8,O=C(Nc1csc(Cl)c1)c1ccccc1,25.1
9,COc1c(N2CCN(C(=S)Nc3ccccc3F)C(C)C2)c(F)cc2c(=O)c(C(=O)O)cn(C3CC3)c12 (configuration not stated),1.63
10,C#CCOCCOCCOCCNc1nc(N2CCN(C(=O)CCCCCCCCCCNC(=O)[C@H](CCCCN)n3cc(C)nn3)CC2)nc(N2CCN(C(=O)CCCCCCCCCCNC(=O)[C@H](CO)n3cc(CCCSC)nn3)CC2)n1,113
11,Cc1cc(C)n(/N=C/c2cc([N+](=O)[O-])ccc2O)c(=O)c1,92
12,O=C(CCN1CCN(c2ccccc2)CC1)c1ccc(Cl)cc1,64.9
13,Oc1c(Br)cc(Br)cc1C=Nc1ccc2[nH]ncc2c1,27.6
14,NC1=NC[C@H](Cc2ccc(O)cc2)N1CCCCC1CCCCC1,17.7
15,Cc1cc([N+](=O)[O-])cc(/C=N/n2c(C)nc3ccccc3c2=O)c1O,77.2
16,Cc1ccc2nc(/C(C#N)=C\c3ccc([N+](=O)[O-])o3)[nH]c2c1,99.1
17,c1cc2c(cc1C1CCCCC1)c1c3n2CCN=C3CCC1,51.1
18,CSc1nc2cc(Oc3cccc(Cl)c3Cl)c(Cl)cc2[nH]1,37.3
19,NC[C@@H]1O[C@H](C23CC4CC(CC(C4)C2)C3)Cc2c1ccc(O)c2O,50.1

row,Compound,IC50 [µM]
1,CCCCCCC[N+](CC)(CC)CCCCc1ccc(Cl)cc1,54.7
2,NC(=O)SCC(=O)Nc1cccc(Cl)c1,9.08
3,O=[N+]([O-])c1cccc2c(N3CCCC3)ccnc12,26.6
4,O=C(NC(=S)NNC(=O)c1ccccc1O)c1ccco1,29.5
5,O=C(CN1C2=NCCCN2c2ccccc21)c1ccc([N+](=O)[O-])cc1,104
6,COc1ccccc1N1CCN(Cc2ccc(O)c3ncccc23)CC1,38.2
7,CCCCCCCCCC[N+](C)(C)CC/C=C1/c2ccccc2Sc2ccc(Cl)cc21,13.2
8,CN(C)CCCNC(=S)NCC(c1ccc(Cl)cc1Cl)c1c[nH]c2ccccc12 (configuration not stated),52.5
9,O=C(Nc1nnc(-c2ccco2)o1)c1cccc(Cl)c1,36.9
10,Clc1ccc(C[n+]2cc(-c3ccc(Cl)cc3)n3c2CCC3)cc1,52.4
11,Cc1ccc(C(c2cc(Cl)c3cccnc3c2O)N2CCN(C)CC2)cc1 (configuration not stated),37
12,CN1CCN(CC(=O)N2CCn3c4c(c5cc(C6CCCCC6)ccc53)CCCC42)CC1 (configuration not stated),32
13,COc1ccc(/C=C/c2cc(-c3ccc(C)cc3)o[n+]2C)cc1,37.2
14,Oc1c(Br)cc(Br)cc1C=NCc1ccccc1,86.6
15,COc1ccc2c(c1OC)C(=O)N(c1ccc(C)cc1)C2=O,143
16,NC(N)=N/N=C/c1ccc(OCc2ccccc2Cl)cc1,31.2
17,COc1cccc(Nc2nc(NCC3CCCO3)c3ccccc3n2)c1 (configuration not stated),10.2
18,CCCCCCCCCCCCCCCC[N+](C)(C)C,24.2
19,CCCCCCCCC1=NCCc2c1[nH]c1ccccc21,63.1

row,Compound,IC50 [µM]
1,NC(N)=N/N=C/c1ccc(OCc2ccc(Cl)cc2)cc1,35.6
2,CCn1cc(C(=O)O)c(=O)c2cc(F)c(N3CCN(C(=O)Nc4ccccc4)CC3)cc21,23.3
3,NC1=NC2(CCCCC2)N=C(Nc2ccc(Br)cc2)N1,12.7
4,O=C(NC(CO)Cc1ccc([N+](=O)[O-])cc1)C(Cl)Cl (configuration not stated),5.73
5,CCOC(=O)N1CCN(CCC(=O)c2ccc(Cl)cc2)CC1,77.2
6,NC1=NC[C@H](CC2CCCCC2)N1CCc1cc(C(F)(F)F)cc(C(F)(F)F)c1,35.6
7,NC1=NC[C@H](Cc2ccc(O)cc2)N1CCC12CC3CC(CC(C3)C1)C2,35.8
8,Nc1ncncc1-c1ccc([N+](=O)[O-])cc1,80.1
9,CCCc1nnc(NC(=O)c2cn(CC)c3cc(N4CCN(C)CC4)c(F)cc3c2=O)s1,66.8
10,N=c1c2c(n(Cc3ccc(Cl)c(Cl)c3)c3c1CCC3)CCCC2,37.4
11,Cc1ccc(C(=O)NNC(=S)NC(=O)c2ccccc2)cc1,62.6
12,O=C(Nc1c(Cl)ccc2nsnc12)c1ccc([N+](=O)[O-])o1,91.4
13,COc1ccc(Nc2c3c(nc4ccccc24)CCC3)cc1,74.6
14,COc1ccc(CNCCc2cccc(F)c2)c2ccccc12,74.6
15,Cc1cccc2c1Sc1ccc(Cl)cc1CC2N1CCNCC1 (configuration not stated),78.5
16,O=C(CSc1ccccn1)Nc1nonc1[N+](=O)[O-],87.3
17,Cc1cc(/C=C\c2ccc3cc(N(C)C)ccc3[n+]2C)c(C)n1-c1ccccc1,27.8
18,CCCCCCCCCCC[N+](C)(C)CC/C=C1/c2ccccc2Sc2ccc(Cl)cc21,39
19,CNC[C@@H](CC1CCCCC1)NC[C@H](CC(C)C)NCCc1cccc(C(F)(F)F)c1,19.8
